# Laboratory results taken from publication PMC11472313, “Development of Fragment-Based Inhibitors of the Bacterial Deacetylase LpxC with Low Nanomolar Activity” (Journal of Medicinal Chemistry, 2024).
# Key:
# [1] = system: E. coli BL21(DE3); assay: MIC, broth microdilution; assay type: cell-based; conditions: Escherichia coli, 20 h, 37 °C, LB
# Protocol: (§1) Besides measuring the inhibitory activities toward E. coli LpxC C63A, the antibacterial activities of the synthesized hydroxamic acids were evaluated by determining their minimal inhibitory concentrations (MIC) in broth dilution tests as well as by performing disc diffusion assays (Table 1).
# (§2) The MIC values of the compounds were determined by means of the microdilution method using 96-well plates.
# (§3) The overnight suspension was diluted 1:1000 in fresh LB. 10 μL of a 2-fold dilution series of the compounds in DMSO and 90 μL of LB were dispensed to each well of a 96-well plate. Then, 100 μL of the inoculated medium was added, resulting in 5 × 10^5 cfu mL^–1, 5% DMSO, and a final concentration range of the test compounds between 64 and 0.016 μg mL^–1. The plates were incubated for 20 h at 37 °C. The MIC was defined as the lowest concentration of the compounds that prevented visible growth after incubation. Each assay was performed at least three times on separate days.
# [2] = system: E. coli D22; assay: MIC, broth microdilution; assay type: cell-based; conditions: Escherichia coli, 20 h, 37 °C, LB
# Protocol: as §1, §2, §3
# [3] = biological target: T1, E. coli LpxC C63A (Escherichia coli, UniProt P0A725, C63A); assay: fluorescence-based E. coli LpxC C63A enzyme inhibition assay; assay type: biochemical; conditions: Ki E. coli LpxC C63A, from IC50 via Cheng–Prusoff
# T1 construct: made in house; host or cells: E. coli BL21(DE3)
# T1 sequence (P0A725 whole entry C63A): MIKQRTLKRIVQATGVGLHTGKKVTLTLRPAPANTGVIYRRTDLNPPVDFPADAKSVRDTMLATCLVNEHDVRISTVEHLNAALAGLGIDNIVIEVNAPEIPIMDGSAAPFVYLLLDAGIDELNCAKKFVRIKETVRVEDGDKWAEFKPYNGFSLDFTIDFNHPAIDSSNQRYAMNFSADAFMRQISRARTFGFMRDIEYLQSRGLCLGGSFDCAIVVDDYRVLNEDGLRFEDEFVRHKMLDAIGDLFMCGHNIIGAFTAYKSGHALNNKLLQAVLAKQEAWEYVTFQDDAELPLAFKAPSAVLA
# Protocol: In order to determine the inhibitory activities of the compounds of interest toward E. coli LpxC, a fluorescence-based enzyme assay was deployed, in which the formed deacetylated natural product UDP-3-O-[(R)-3-hydroxymyristoyl]glucosamine (2) is transformed into a fluorescent isoindole with o-phthaldialdehyde and 2-mercaptoethanol.[48],[49] […] The KM of E. coli LpxC C63A was determined experimentally using a mass spectrometry-based LpxC assay (Figure S8, Supporting Information, vide infra).
# A fluorescence-based microplate assay for LpxC activity was performed as described by Clements et al.[48] The wells in a black, nonbinding, 96-well fluorescence microplate (Greiner Bio One, Frickenhausen) were filled with 93 μL of 26.9 μM UDP-3-O-[(R)-3-hydroxymyristoyl]-N-acetylglucosamine in assay buffer [40 mM sodium morpholinoethanesulfonic acid (pH 6.0), 80 μM dithiothreitol, 0.02% Brij 35]. In order to assay the inhibitors at final concentrations from 20 nM up to 20 μM, 2 μL of a respective dilution of the compounds in DMSO were added. The addition of 5 μL of a solution of purified LpxC (10 μg mL^–1) in assay buffer led to final concentrations of 25 μM UDP-3-O-[(R)-3-hydroxymyristoyl]-N-acetylglucosamine, 15 nM E. coli LpxC C63A, 2% DMSO, and from 20 nM up to 20 μM inhibitor. The microplate was incubated for 30 min at 37 °C in a plate shaker. Then, the biochemical reaction was stopped by adding 40 μL of 0.625 M sodium hydroxide. The reaction mixture was further incubated for 10 min and neutralized by adding 40 μL of 0.625 M acetic acid. The deacetylated product UDP-3-O-[(R)-3-hydroxymyristoyl]glucosamine was converted into a fluorescing isoindole by adding 120 μL of an o-phthaldialdehyde-2-mercaptoethanol solution, which was prepared by dissolving 10 mg of o-phthaldialdehyde in 1 mL of methanol, diluting the mixture with 24 mL of a sodium borate buffer (0.1 M), and finally adding 2.5 μL of 2-mercaptoethanol.[49] Fluorescence was measured with a TriStar^2 S LB 942 plate reader (Berthold, Bad Wildbad) at 340 nm excitation and 460 nm emission wavelengths. Each assay was performed at least three times on separate days. The IC50 values were calculated via Probit-log concentration graphs with the aid of the software Origin and were subsequently converted into Ki values using the Cheng–Prusoff equation.[75],[76]
# [4] = system: E. coli BL21(DE3); assay: disc diffusion assay; assay type: cell-based; conditions: 0.15 μmol per 6 mm disc
# Protocol: as §1
# (§4) The disc diffusion assays against E. coli BL21(DE3) and the defective strain E. coli D22 were performed as follows: liquid cultures of the bacteria were grown overnight in lysogeny broth (LB)[73] at 37 °C and 200 rpm. 150 μL of an overnight cell suspension was spread evenly onto LB agar plates. 0.15 μmol of each compound (dissolved in 10 or 15 μL DMSO) were applied onto circular filter paper (Ø = 6 mm, Cytiva). Pure DMSO, serving as a negative control, and CHIR-090, serving as a positive control, were also spotted. The agar plates were incubated overnight at 37 °C, and the diameter of the zone of growth inhibition was measured for each compound. Each assay was performed at least three times on separate days.
# [5] = system: E. coli D22; assay: disc diffusion assay; assay type: cell-based; conditions: 0.15 μmol per 6 mm disc
# Protocol: as §1, §4
# [6] = biological target: T2, LasB (Pseudomonas aeruginosa, UniProt Q02RJ6); assay: FRET-based LasB in vitro inhibition assay; assay type: biochemical, P. aeruginosa PA14
# T2 construct: The elastase LasB of P. aeruginosa is a secreted metalloprotease; endogenous in cells; host or cells: P. aeruginosa PA14 culture supernatant
# T2 sequence (Q02RJ6 198-498): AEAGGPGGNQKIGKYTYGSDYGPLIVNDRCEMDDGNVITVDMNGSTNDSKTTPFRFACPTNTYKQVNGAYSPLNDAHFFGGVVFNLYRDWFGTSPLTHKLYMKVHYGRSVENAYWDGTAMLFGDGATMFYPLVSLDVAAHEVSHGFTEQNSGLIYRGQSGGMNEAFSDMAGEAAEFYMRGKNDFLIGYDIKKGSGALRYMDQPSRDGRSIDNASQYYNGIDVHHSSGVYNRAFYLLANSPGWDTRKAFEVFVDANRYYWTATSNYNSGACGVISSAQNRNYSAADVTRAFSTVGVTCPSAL
# Protocol: Purification of LasB from P. aeruginosa PA14 supernatant and the subsequent performance of the FRET-based in vitro inhibition assay was performed as described previously.[66] The TACE (ADAM-17) inhibitor screening kit was purchased from Sigma-Aldrich (Saint Louis, MO). MMPs 1–3 along with the SensoLyte 520 Generic MMP Activity Kit Fluorimetric were purchased from AnaSpec (Fremont, CA, USA). The assays were performed according to the guidelines of the respective manufacturer. Fluorescence signals were measured using a CLARIOstar plate reader (BMG Labtech, Ortenberg, Germany).
# [7] = system: LpxC–9 complex; assay: NMR-ILOE (interligand NOESY) of fragment hits with LpxC and 9; conditions: fragment hits binding the LpxC–9 complex by STD and WaterLogsy; 6 μM LpxC
# Protocol: In order to find fragments specifically addressing the UDP-binding pocket, which can be linked to the LpxC inhibitors, a fragment screen was performed against LpxC bound to 9. First, 650 fragments in cocktails of five were tested for binding to the LpxC–9 complex using STD-NMR and WaterLogsy experiments. Then, fragment hits identified as potential binders were tested one by one against the LpxC–9 complex by STD-NMR and WaterLogsy experiments performed under identical experimental conditions. A total of 97 fragment hits were identified as binders, leading to a hit rate of 15%.
# Then, NMR-ILOE experiments were performed with selected fragment hits in the presence of LpxC and the unsubstituted hydroxamic acid 9. This allowed the identification of fragments that bind in the enzyme’s UDP-binding pocket near the methylene group in the α-position of the inhibitor’s hydroxamate moiety. Weak interligand NOESY peaks were observed between inhibitor 9 and nine fragments. By contrast, no interligand NOESY peaks were observed between compound 9 and the other ten fragments. […] Unexpectedly, we also observed interligand NOESY between the fragment protons and protons of the morpholino moiety.
# Standard 1D and STD NMR spectra were acquired at 20 °C with a Bruker 600 MHz NMR spectrometer equipped with a 5 mm cryoprobe. Parameters for the STD experiments (saturation frequency and saturation time) were identical for all samples. […] STD saturation time was 2 s. WaterLOGSY mixing time was 1.5 s. Two NOESY experiments were recorded with mixing times of 0.6 and 0.3 s. STD and WaterLOGSY spectra were recorded with the same NMR tubes containing 3 μM LpxC, compound 9 at 500 μM, and fragments at 500 μM. For NOESY experiments, NMR tubes contained 6 μM LpxC.
# Temperature was set to 293 K for all NMR experiments.
SMILES,MIC [1],MIC [2],Ki [3],Inhibition zone E. coli BL21(DE3) [4],Inhibition zone E. coli D22 [5],LasB Inhibition at 20 μM ([6]; 20 μM),inhibition at 20 µM ([6]; read-out: LasB Inhibition at 20 μM),Inter-Ligand NOESY peaks between the fragment and 9 [7]
"O=C(NO)[C@@H](COCc1ccccc1)OCc1ccc(C#Cc2ccc(CN3CCOCC3)cc2)cc1 [(R)-11a, (R)-3-(Benzyloxy)-N-hydroxy-2-[(4-{[4-(morpholinomethyl)phenyl]ethynyl}benzyl)oxy]propanamide]",> 32 µg/mL,2 µg/mL,3.62 ± 0.64 µM,≤6 mm,15.7 ± 1.2 mm,–,–,–
"O=C(NO)[C@@H](CNCc1ccccc1)OCc1ccc(C#Cc2ccc(CN3CCOCC3)cc2)cc1 [(R)-12a, (R)-3-(Benzylamino)-N-hydroxy-2-[(4-{[4-(morpholinomethyl)phenyl]ethynyl}benzyl)oxy]propanamide]",32 µg/mL,4 µg/mL,5.9 ± 2.02 µM,10.7 ± 1.2 mm,20.0 ± 1.8 mm,–,–,–
"O=C(NC[C@@H](OCc1ccc(C#Cc2ccc(CN3CCOCC3)cc2)cc1)C(=O)NO)c1ccccc1 [(R)-13a, (R)-N-{3-(Hydroxyamino)-2-[(4-{[4-(morpholinomethyl)phenyl]ethynyl}benzyl)oxy]-3-oxopropyl}benzamide]",–,4 µg/mL,2.56 ± 1.08 µM,9.7 ± 0.6 mm,18.0 ± 2.0 mm,–,–,–
O=C(NC[C@@H](OCc1ccc(C#Cc2ccc(CN3CCOCC3)cc2)cc1)C(=O)NO)c1ccc(-c2ccccc2)cc1 [(R)-13b],> 16 µg/mL,> 16 µg/mL,> 2.54 µM,≤6 mm,≤6 mm,–,–,–
O=C(NC[C@@H](OCc1ccc(C#Cc2ccc(CN3CCOCC3)cc2)cc1)C(=O)NO)c1cccc(-c2ccccc2)c1 [(R)-13c],> 16 µg/mL,> 16 µg/mL,> 2.54 µM,≤6 mm,≤6 mm,–,–,–
O=C(NC[C@@H](OCc1ccc(C#Cc2ccc(CN3CCOCC3)cc2)cc1)C(=O)NO)c1ccc(Oc2ccccc2)cc1 [(R)-13d],> 16 µg/mL,> 16 µg/mL,> 2.54 µM,≤6 mm,≤6 mm,–,–,–
O=C(NC[C@@H](OCc1ccc(C#Cc2ccc(CN3CCOCC3)cc2)cc1)C(=O)NO)c1ccc2ccccc2n1 [(R)-13e],> 16 µg/mL,8 µg/mL,> 2.54 µM,≤6 mm,12.7 ± 1.6 mm,–,–,–
O=C(NC[C@@H](OCc1ccc(C#Cc2ccc(CN3CCOCC3)cc2)cc1)C(=O)NO)c1cnc2ccccc2c1 [(R)-13f],> 16 µg/mL,> 16 µg/mL,> 2.54 µM,≤6 mm,10.3 ± 1.2 mm,–,–,–
O=C(NC[C@@H](OCc1ccc(C#Cc2ccc(CN3CCOCC3)cc2)cc1)C(=O)NO)c1cc2ccccc2[nH]1 [(R)-13g],> 16 µg/mL,16 µg/mL,> 2.54 µM,≤6 mm,9.0 ± 1.0 mm,–,–,–
O=C(NC[C@@H](OCc1ccc(C#Cc2ccc(CN3CCOCC3)cc2)cc1)C(=O)NO)c1ccc2[nH]ccc2c1 [(R)-13j],> 16 µg/mL,16 µg/mL,1.15 ± 0.317 µM,≤6 mm,11.7 ± 1.2 mm,–,–,–
O=C(NC[C@@H](OCc1ccc(C#Cc2ccc(CN3CCOCC3)cc2)cc1)C(=O)NO)c1cc(-c2ccccc2)[nH]n1 [(R)-13m],> 16 µg/mL,> 16 µg/mL,> 2.54 µM,≤6 mm,9.7 ± 1.3 mm,–,–,–
Cc1noc(C)c1C(=O)NC[C@@H](OCc1ccc(C#Cc2ccc(CN3CCOCC3)cc2)cc1)C(=O)NO [(R)-13n],> 16 µg/mL,8 µg/mL,> 2.54 µM,≤6 mm,16.3 ± 1.6 mm,no inhibitory activity,< 10%,–
"O=C(NO)[C@@H](CN(Cc1ccccc1)Cc1ccccc1)OCc1ccc(C#Cc2ccc(CN3CCOCC3)cc2)cc1 [(R)-37, (R)-3-(Dibenzylamino)-N-hydroxy-2-[(4-{[4-(morpholinomethyl)phenyl]ethynyl}benzyl)oxy]propanamide]",> 16 µg/mL,> 16 µg/mL,> 2.54 µM,≤6 mm,≤6 mm,–,–,–
COc1ccc2[nH]ccc2c1 [F1],–,–,–,–,–,–,–,yes
